Results reported in publication PMC5329948, “Caspase vinyl sulfone small molecule inhibitors prevent axonal degeneration in human neurons and reverse cognitive impairment in Caspase-6-overexpressing mice” (Molecular Neurodegeneration, 2017).

Columns and labels:
[1] = molecular target: T1, recombinant Caspase-3 (Homo sapiens, UniProt P42574); test: Caspase Inhibitor Drug Screening Kit (BioVision), DEVD-AFC substrate; type: biochemical; conditions: not active site titrated
T1 construct: purchased BioVision
T1 sequence (P42574 29-277): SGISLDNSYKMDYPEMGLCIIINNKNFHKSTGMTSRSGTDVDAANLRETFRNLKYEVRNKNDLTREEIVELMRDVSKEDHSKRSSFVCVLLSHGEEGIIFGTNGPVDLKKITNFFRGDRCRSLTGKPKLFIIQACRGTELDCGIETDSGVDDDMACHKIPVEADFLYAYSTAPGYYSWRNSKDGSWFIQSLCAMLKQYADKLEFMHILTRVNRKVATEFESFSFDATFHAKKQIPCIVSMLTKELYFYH
Procedure: (§1) The half-maximal inhibitory concentrations (IC50) for NWL inhibitors (Patent publication # WO/2009/140765, WO/2010/133000, and WO/2012/140500) was determined by incubating 0 to 20 μM NWL-117 and NWL-154 with 20 nM of active site-titrated Casp6 in SB at room temperature for 5 minutes. Then, 10 μM Ac-VEID-AFC was added and fluorescence measured for 20 min at 37 °C as described above. New World Laboratories performed the IC50 determination for NWL inhibitors dissolved in dimethyl sulfoxide (DMSO) against recombinant Casp1-10 using the Caspase Inhibitor Drug Screening Kits (BioVision, San Francisco, CA) following the manufacturer’s instructions and the preferred substrates for the caspases (Caspase-1: WAD-AFC, Caspase-2: VDVAD-AFC, Caspase-3: DEVD-AFC, Caspase-4: LEVD-AFC, Caspase-5: WEHD-AFC, Casp6:VEID-AFC, Caspase-7: DEVD-AFC, Caspase-8: IETD-AFC, Caspase-9: LEHD-AFC, Caspase-10: AEVD-AFC). In transfected HCT116 cells, 0 to 100 μM NWL inhibitors were added in the culture media and left on the cells for 2 h. Cells were washed once with 1 mL ice-cold PBS, incubated on ice for 5 min with 200 μL cell lysis buffer (CLB) (50 mM HEPES, 0.1% CHAPS, 0.1 mM EDTA), and gently scraped off. Protein concentrations were determined by Bradford assay (BioRad, Mississauga, ON, CA) by measuring the absorbance at 595 nm using the BioTek Synergy H4 plate reader. Caspase-6 activity was measured in 40–60 μg total protein as described above. The IC50 for recombinant and cellular caspases were determined using GraphPad Prism 5.0 (La Jolla, CA, USA) using a log (inhibitor) – response curve with a Hill slope of −1.

[2] = molecular target: T2, recombinant Caspase-7 (Homo sapiens, UniProt P55210); test: as above; type: biochemical; conditions: not active site titrated
T2 construct: purchased BioVision
T2 sequence (P55210 whole entry): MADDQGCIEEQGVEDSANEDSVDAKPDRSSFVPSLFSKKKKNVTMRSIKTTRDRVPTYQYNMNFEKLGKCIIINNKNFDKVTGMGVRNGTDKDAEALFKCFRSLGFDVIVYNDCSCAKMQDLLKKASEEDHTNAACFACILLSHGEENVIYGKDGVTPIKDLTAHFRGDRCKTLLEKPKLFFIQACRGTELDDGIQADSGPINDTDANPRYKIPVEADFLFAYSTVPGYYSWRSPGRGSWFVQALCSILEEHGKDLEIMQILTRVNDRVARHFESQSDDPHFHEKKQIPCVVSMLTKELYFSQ
Procedure: as §1

With `CCC(C)[C@H](NC(=O)[C@H](CCC(=O)O)NC(=O)[C@@H](NC(=O)OCc1ccccc1)C(C)C)C(=O)N[C@H](/C=C/S(C)(=O)=O)CC(=O)O` (stereo partly shown) [NWL-117] as the compound, how does the IC50 [1] read?
The IC50 was 6.96 µM.

And the IC50 [2]?
The IC50 was over 100 µM.

Which results are given for `CCC(C)[C@H](NC(=O)[C@H](CCC(=O)O)NC(=O)[C@@H](NC(=O)OCc1ccccc1)C(C)C)C(=O)N[C@H](/C=C(\Cl)S(C)(=O)=O)CC(=O)O` (stereo partly shown) [NWL-154]?
IC50 [1]: 1.34 µM; IC50 [2]: > 100 µM
